For assay [1], the system named is DLD1 cells (ATCC CCL-221). The assay can be described thus: Cell viability assay (CellTiter-Glo), DLD1 cells. Type of assay: cell-based. Conditions: Homo sapiens, DLD-1 cells, 48 h incubation, second value of the cell, read-out: Cell Viability (μM) DLD-1 (concentration that decreases cell viability by 50%). As to the method:
(§1) Cells (A549 ATCC CCL-185) are cultured in Dulbecco's Modified Eagle's Medium plus 10% foetal calf serum and 2 mM L-glutamine at 37° C., 5% CO2. Cells are plated onto white clear bottom 96-well plates (5000 cells/well in 200 μl media) and left to adhere overnight at 37° C., 5% CO2. Next day, test compound (1 μl at 200× concentration in 100% DMSO) is added to give final test compound concentration 1× in 0.5% DMSO. After 48 h of incubation at 37° C., 5% CO2, 20 μl CellTiter-Glo reagent (Promega G7572) is added into each well. Plates are incubated at room temperature with shaking for 30 min and then luminescence is read using a PheraStar plate reader. The concentration of compounds that decrease cell viability by 50% is calculated from dose response curves generated using Dotmatics data analysis software.
In the DLD1 cell assay, cells (ATCC CCL-221) are cultured in RPMI-1640 medium plus 10% foetal calf serum and 2 mM L-glutamine at 37° C., 5% CO2.
(Cellular ATP, detected with luciferase, serves as a proxy for viable cell number.)

Assay [2] relates to H358 cells (ATCC CRL-5807). The assay can be described thus: Cell viability assay (CellTiter-Glo), H358 cells. It is filed as cell-based. Conditions: Homo sapiens, NCI-H358, 48 h incubation, first value of the cell, read-out: Cell Viability (μM) H358 (concentration that decreases cell viability by 50%). As to the method: as §1
In the H358 cell assay, cells (ATCC CRL-5807) are cultured in RPM-1640 medium plus 10% foetal calf serum and 2 mM L-glutamine at 37° C., 5% CO2.

The target in assay [3] is T1, GST-human KRas166 (G12V) GPPNHP (Homo sapiens, UniProt P01116, G12V).
T1 construct: made in house; host or cells: E. coli C41(DE3)
The assay can be described thus: KRas small-molecule screening by SPR (BIACORE T200). It is filed as binding. Conditions: compound at final concentration of 100 uM; immobilised GST-KRAS166 (G12V) GPPNHP, GST reference channel. The gist of the method: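 E. coli-expressed GST-KRas166 (G12V) was loaded with GPPNHP and captured on an anti-GST CM5 chip at 10,000–15,000 RU, with GST as the reference channel. Compounds were injected at 100 uM in buffer containing 100 mM NaCl, 5 mM MgCl2 and 5% DMSO, with solvent correction. Binding was measured by Biacore T200 SPR against a theoretical Rmax.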

The results in this text go back to patent publication US11724999B2, “Inhibitors of RAS-effector protein interactions” (Oxford University Innovation Limited, priority 2018, dated 2023).

In the case of `CN1CCN(Cc2ccc(C(=O)NC[C@@H]3COc4ccc(OCc5ccccc5)cc4O3)o2)CC1` [Example 2, 5-(4-Methyl-piperazin-1-ylmethyl)-furan-2-carboxylic acid ((R)-7-benzyloxy-2,3-dihydro-benzo[1,4]dioxin-2-ylmethyl)-amide], the IC50 came out at 10 µM in assay [1] and 43 µM in assay [2]. Besides, the “SPR Response Units” value in assay [3] is reported as 224 Response Units.
For the molecule `O=C(NCc1ccc(CN2CCNCC2)cc1)C1COc2ccc(OCc3ccccc3)cc2O1` (stereo not drawn) [Example 74, 7-Benzyloxy-2,3-dihydro-benzo[1,4]dioxine-2-carboxylic acid 4-piperazin-1-ylmethyl-benzylamide], the IC50 in assay [1] was determined as 16.7 µM; in assay [2], 21.3 µM. For the same molecule, the “SPR Response Units” value in assay [3] is on record as 115 Response Units.
For the molecule `O=c1ccccn1CCN1CCN(C[C@@H]2COc3ccc(OCc4ccccc4)cc3O2)CC1` [Example 52, 1-{2-[4-((R)-7-Benzyloxy-2,3-dihydro-benzo[1,4]dioxin-2-ylmethyl)-piperazin-1-yl]-ethyl}-1H-pyridin-2-one], the figures for the IC50 in assay [1] and in assay [2] were 15 µM and above 100 µM, respectively. Also, the “SPR Response Units” value in assay [3] is recorded as 70 Response Units.
On to `c1ccc(COc2ccc3c(c2)O[C@H](CNC2CCNCC2)CO3)cc1` [Example 45, ((R)-7-Benzyloxy-2,3-dihydro-benzo[1,4]dioxin-2-ylmethyl)-piperidin-4-yl-amine], for which the IC50 in assay [1] was 9.6 µM; in assay [2], 26.3 µM. Further, the “SPR Response Units” value in assay [3] is recorded as 22 Response Units.
